Data published in patent US10620112B2, “Measuring HIV reservoirs with optical scanning” (SRI INTERNATIONAL, priority 2015, dated 2020).

Test system: NL4-3 infected resting CD4+ T cells
Experiment: Intracellular HIV Gag staining (flow cytometry) of resting CD4+ T cells directly infected with NL4-3, day 3 post-infection
Assay type: cell-based
Settings: resting CD4+ T cells infected with NL4-3 by spinoculation, cultured in the presence of the compound, three days postinfection
Method: Quiescent CD4+ T cells in the G0/1a stage of the life cycle were enriched by depletion of lineage and activation markers (39, 40). Cells were infected with NL4-3 by spinoculation (32) and cultured in the absence of activating cytokines and in the presence of the protease inhibitor saquinavir (17, 39). dNs were added to infected cultures to overcome SAMHD1− mediated restriction that has been described in resting T cells (33, 41, 42). Three days postinfection cells were stained with LIVE/DEAD aqua and stained for surface markers with antibodies against CD3 (AF700), CD4 (PECy5.5), and CD25/CD69/HLA-DR (APC). Cells were then fixed, permeabilized and stained for HIV Gag. […] Consistent with our previous work, the cultured Gag+ cells lacked the activation markers CD25, CD69 and HLA-DR at day 3. […] The level of integrated HIV DNA was determined to be 0.32 copies per cell in the bulk culture (termed whole culture, WC). Gag+CD4− cells contained 1.2 HIV proviruses per cell, which represented an enrichment of integrated HIV DNA in Gag+CD4− cells compared to Gag− cell populations (Gag−CD4− cells contained 0.013 copies, Gag−CD4int cells contained 0.11 copies, and Gag− CD4+ cells contained 0.24 copies of integrated HIV DNA per cell).

Cc1nnc(C(=O)NC(C)(C)c2nc(C(=O)NCc3ccc(F)cc3)c(O)c(=O)n2C)o1 [raltegravir]
Gag staining of infected cells: very low Gag staining
